Reference: patent US10513534B2, “2′-chloro nucleoside analogs for HCV infection” (priority 2012, dated 2019)

What was measured:
[1] = Stability in simulated gastric fluid; type: in vitro ADME; settings: simulated gastric fluid with pepsin, 100 μM, 2 hours, 37° C.
Experimental: (§1) Stability in Simulated Gastric and Intestinal Fluids: Simulated gastric and intestinal fluids containing pepsin and pancreatin respectively were prepared according to the U.S. Pharmacopoeia USP291 procedure(www.pharmacopeia.cn/v29240/usp29nf24s0_ris1s126.html). Each test compound (final concentration 100 μM) was incubated in duplicate in the appropriate fluid for 2 hours at 37° C. The samples were quenched with […] cold acetonitrile, vortexed for 30 seconds and then centrifuged at 16100×g for 10 min. The supernatants were analyzed by HPLC on a C-18 column with UV detection at 252 nm. The time zero samples were prepared by adding SGF or SIF fluid to the quenching solvent followed by the test compound. Stability of the compound was determined by peak area of the test compound after incubation and calculated as percent of the peak area observed at time zero.

[2] = Stability in simulated intestinal fluid; type: in vitro ADME; settings: simulated intestinal fluid with pancreatin, 100 μM, 2 hours, 37° C.
Experimental: as §1

[3] = Stability in intestinal microsomes; type: in vitro ADME; settings: human intestinal microsomes 1.0 mg/mL, 10 μM, NADPH, 60 min
Experimental: Stability of test compounds were determined in human liver and intestinal microsomes in duplicate for each matrix. Pooled liver and intestinal microsomal proteins (1.0 mg/mL), suspended in incubation buffer (100 mM potassium phosphate, pH 7.4, 5 mM MgCl2, and 0.1 mM EDTA), were preincubated for 5 min at 37° C. with 10 μM of a test compound from a 10 mM stock solution in DMSO (final DMSO concentration was 0.1%); the reaction was initiated by the addition of NADPH (3 mM final concentration). At specific times (0 and 60 min), 0.1 mL samples were taken and the reaction terminated by the addition of 4 volumes of stop solution (acetonitrile with 500 ng/mL carbutamide as an internal standard). The samples were vortexed for 30 sec and then centrifuged at 16000×g for 10 min. 100 μL of supernatants were transferred to 96 deep-well plates preloaded with 100 μL distilled water and analyzed after mixing by LC-MS/MS. The MS peak area ratio of the test compound versus the internal standard was calculated and percent unchanged test compound over 60 minutes was calculated using this ratio.

fresh mouse hepatocytes = experiment: Release of active metabolite in fresh mouse hepatocytes; type: in vitro ADME; settings: 10 μM
Experimental: Plates of fresh human and mouse hepatocytes were obtained on ice. The medium was removed and replaced with hepatocyte culture medium (William's E supplemented with penicillin-streptomycin, 1% L-glutamine, 1% insulin-transferrin-selenium and 0.1 μM Dexamethasone (Invitrogen) or with Invitro GRO HI medium complemented with Torpedo antibiotics (Celsis)). Cells were left overnight in an incubator at 37° C. to acclimatize to culture and the medium.
Hepatocyte incubations were conducted at a final volume of 0.5 mL hepatocyte culture medium/well (0.8 million cells/well for human and 0.5 million cells/well for mouse; 12 well plate no overlay, collagen coat). Culture medium from overnight incubation of cells was removed and replaced with fresh medium, pre-warmed to 37° C., containing 10 μM of test compound from a stock solution in DMSO (final DMSO concentration was 0.1%). At each specific time point, incubation medium was removed and cell monolayers were carefully washed two times with ice-cold PBS. Following the last wash, all PBS was carefully removed and 1.0 mL of extraction solution (ice-cold 70% methanol/30% water) added. Cells were scraped off and suspended in the extraction solution, transferred to 2 mL polypropylene microfuge tubes and intracellular contents extracted overnight at −20° C.
After the overnight treatment the cellular extracts were prepared by centrifugation at 16,000×g for 10 min to remove cellular debris. The remaining sample was then dried using a refrigerated centrivap concentrator. Dry extracts were reconstituted in 1000 μL of HPLC-grade water and centrifuged at 16,000×g for 10 min. Aliquots (100 μL each) of the supernatant were transferred into a 96 well plate and internal standard (4 ng/mL final concentration) was added as the internal standard (IS) for LC-MS/MS analysis.
The incubation time points were 6, 24 and 48 hours for human hepatocytes and 1, 4, 8, 12 and 24 hours for mouse hepatocytes.

[4] = Plasma nucleoside pharmacokinetics after single oral dose in CD-1 mice; type: in vivo; settings: single oral dose 10 mg/kg in PEG 200;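 on Ms Plasma nucleoside AUC: pmol·h/mL plasma normalized to a 1 µmol/kg dose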
Outline: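 Mouse plasma was extracted by acetonitrile/0.2% formic acid protein precipitation using 2′-MeG-D3 or tiapride as internal standard. Nucleoside was quantified by positive-ion LC-MS/MS after C18 gradient separation. Calibration spanned 0.500 (LLOQ) to 200 ng/mL.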

[5] = Liver triphosphate pharmacokinetics after single oral dose in CD-1 mice; type: in vivo; settings: single oral dose 10 mg/kg in PEG 200;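 on Ms Liver TP AUC: pmol·h/g liver normalized to a 1 µmol/kg dose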;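 on Ms Liver TP Cmax: pmol/g liver normalized to a 1 µmol/kg dose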
Experimental: Internal standard solution was added to the homogenate followed by neutralization with 20% ammonium hydroxide solution and addition of 500 μL 1% formic acid. The tissue samples were extracted by weak anion exchange solid phase extraction (SPE). Post extraction, the eluates were evaporated under nitrogen, followed by reconstitution before injection onto the LC-MS/MS system.

## CC(C)OC(=O)[C@H](C)NP(=O)(OC[C@H]1O[C@@H](n2ccc(=O)[nH]c2=O)[C@](C)(Cl)[C@@H]1O)Oc1ccccc1 (single isomer, unassigned) [Compound 40ii Diastereomer 2]
[1]
  SGF stability (percent remaining): ++++ (75% < ++++)
[2]
  SIF stability (percent remaining): + (+ ≤ 25%)
[3]
  HIM (1 hr) stability (percent remaining): ++++ (75% < ++++)
Fresh mouse hepatocytes
  MsH AUC: ++++ (1500 < ++++)
  MsH Cmax: +++ (50 < +++ ≤ 100)
[4]
  Ms Plasma nucleoside AUC: +++ (500 < +++ ≤ 1500)
  Ms Plasma nucleoside Cmax: +++ (50 < +++ ≤ 100)
[5]
  Ms Liver TP AUC: +++ (500 < +++ ≤ 1500)
  Ms Liver TP Cmax: ++ (15 < ++ ≤ 50)
